From patent US5627173A, “Phosphonoacetic acid derivatives and their use for treating degenerative joint disorders” (Hoechst Aktiengesellschaft, priority 1995, dated 1997)
Converted amounts (≈) assume the structure as drawn.

How the values were obtained:
[1] = test system: isolated strips of guinea pig lung; assay: Antagonism of PAF-induced contraction of isolated strips of guinea pig lung; conditions: Cavia porcellus; agonist PAF; read-out: Anticontractile effect (lung), concentration range corresponding to the IC50 value
Source text: (§1) The test was based on the same principle as the test indicated in Pharmacological Test 5; however, strips of lung were used in this case.
(§2) The guinea pig was sacrificed under anesthesia with laughing gas. The entire lung tract was cut out starting from the trachea. The lobes of the lungs were cut in circular fashion to produce strips about 3 mm wide. The strips of the upper lobes were divided up in order to obtain a total of six strips of approximately equal size. The strips were suspended in the organ baths under a preload of 4 g. Modified Krebs-Henseleit solutions were used as nutrient solution. When platelet activating factor (PAF) was used as agonist, the composition of this solution corresponded to that for the agonist SP in Pharmacological Test 5; a Krebs-Henseleit solution as in the case of the agonist KCI (Pharm. Test 5) was used for the agonist LTD4. 95% by volume 02, 5% by volume CO2 was bubbled through the bath, and the bath temperature was 37° C. The test is carried out by a therapeutic/cumulative method with dose levels of 1, 3, 6 and 10 μg/ml.
(§3) The test animals, organ bath, vehicle, mode of administration corresponded to that stated for Pharmacological Test 5.

[2] = test system: isolated strips of guinea pig lung; assay: Antagonism of LTD4-induced contraction of isolated strips of guinea pig lung; conditions: Cavia porcellus; agonist LTD4; read-out: Anticontractile effect (lung), concentration range corresponding to the IC50 value
Source text: as §1, §2, §3

[3] = test system: isolated guinea pig trachea; assay: Antagonism of KCl-induced contraction of the isolated guinea pig trachea; conditions: Cavia porcellus; agonist KCl; read-out: Anticontractile effect (trachea), concentration range needed to bring about a dilatation corresponding to the ED50 range
Source text: (§4) The compounds according to the invention are used as antagonists of the contraction of various parts of organs, in this case the isolated guinea pig trachea. The agonists used were KCl, PGF2a, calcium ionophore A23187 and substance P:
Products with a non-specific effect generally show a spasmolytic effect with respect to all agonists. KCI is representative here of non-specific, receptor-independent contraction because KCl-induced contractions are produced predominantly physically, that is to say by increasing the K+ concentration in the outside medium, and change the resting potential of the cell.
(§5) The guinea pigs were sacrificed by lethal anesthesia with laughing gas. The trachea was dissected out over its entire length and cut into 15 individual cartilage rings. In each case five rings were connected together to form a chain and fixed in an organ bath under a preload of 3 g. After an equilibration period of 45 minutes, a contraction was induced with the agonist. Cumulative addition of the antagonist (test product) took place at the plateau 5 of the maximum. Evaluation took place as % change in strength based on the maximum contraction. The test was carried out at 37° C., and the physiological nutrient solution used was a modified Krebs-Henseleit solution through which 95% by volume 02 and 5% by volume CO2 was bubbled.
(§6) Test animals: Albino guinea pigs (102), weight: 200 to 300 g, male or female
(§7) Composition of the organ bath (nutrient solution):
(§8) Vehicle: Double-distilled water, ethanol or isopropanol; Administration: into the organ bath Number of administrations: cumulative, single doses for SP

[4] = test system: isolated guinea pig trachea; assay: Antagonism of substance P-induced contraction of the isolated guinea pig trachea; conditions: Cavia porcellus; agonist substance P; read-out: Anticontractile effect (trachea), concentration range needed to bring about a dilatation corresponding to the ED50 range
Source text: as §4
Antagonism is possible on the one hand by specific receptor antagonists, and on the other hand by inhibition of the downstream signal pathway.
as §5, §6, §7, §8

[5] = test system: isolated guinea pig trachea; assay: Antagonism of PGF2α-induced contraction of the isolated guinea pig trachea; conditions: Cavia porcellus; agonist PGF2α; read-out: Anticontractile effect (trachea), concentration range needed to bring about a dilatation corresponding to the ED50 range
Source text: as §4
Inhibition of contractions induced by this cyclooxygenase product is possible only by competitive antagonism at the receptor or of the downstream signal pathway.
as §5, §6, §7, §8

[6] = test system: matrix metalloproteases; assay: Inhibition of matrix metalloproteases (MMP from rabbit synoviocytes HIG-82, fluorescent substrate); assay type: biochemical
Experimental: After confluent cell growth, the MMP expression was induced in the serum-free 3F12 HAM medium by adding 0.3 μmol/l phorbol 12-myristate 13-acetate. The supernatant was removed after incubating at 37° C. for 20 hours.
Activation of the MMP: The supernatant was activated with trypsin (5 μg/ml). After 15 minutes at 37° C., the activation was stopped by adding 1 mmol/l phenylmethylsulfonyl fluoride (PMSF) and incubating for a further 10 minutes. The total volume of the mixture was 210 μl.
The test substance was added in the stated concentration (see table). […] The reaction was stopped after 30 minutes by adding 10 mmol/l EDTA. The total-volume of the mixture was 320 μl . The parameters measured were the fluorescence intensities at […]. In order to take account of the possible intrinsic fluorescence of the test substances, the fluorescence intensities from parallel measurements without substrate were subtracted from the measurements with substrate. All the steps took place at 20° C.

[7] = test system: interleukin-1β; assay: Inhibition of release of interleukin-1β from human mononuclear cells; assay type: cell-based; conditions: 10 .parallel.mol/l (so in the source), IL-1β, LPS-stimulated, 20 to 22 hours
Experimental: Obtaining mononuclear cells from human blood: 10 ml of human blood stabilized with 1 ml of 3.8 percent sodium citrate solution were diluted with 10 ml of PM16 (Serra, Heidelberg), and an underlayer of 15 ml of Lymphoprep (Dr. Molter GmbH, Heidelberg) was introduced. The samples were centrifuged at 400 x g (Minifuge 2 Heraeus, Osterode) at room temperature for 40 minutes. The mononuclear cells were visible as a white ring at the Lymphoprep/plasma boundary. This ring was cautiously removed with a syringe, diluted with the same volume of PM16 and centrifuged at 400 x g for 10 minutes. The precipitate was washed with ^~ 10 ml of RPMI1640 (+300 mg/I L-glutamine, Gibco, Eggenstein). After the cells had been suspended in ^~ 1 ml of RPMI1640 (+300 mg/I L-glutamine, +25 mM HEPES, +100 μg/ml streptomycin, +100 μg/ml penicillin), the cell density was determined with a JT Coulter Counter (Coulter Diagnostics) and adjusted to 5.10^6 /ml. 90% of the resulting cells were lymphocytes and 10% were monocytes.
Inhibition of release of interleukin-1β: 230 μl of mononuclear cells were incubated with 10 μl of test substance (10 μM in dimethyl sulfoxide (DMSO)/water=1/10) and 10 μl of a lipopolysaccharide solution (500 μg dissolved in 1 ml of DMSO and diluted 1/10 with water before starting the test, from Salmonella abortus equi, (Sigma, Deisenhofen) at 37° C., 5% CO2 for 20 to 22 hours. The samples were cooled to 0° C. in an ice bath and centrifuged in a Sigma centrifuge (2 minutes; 2000 revolutions per minute (rpm)). Aliquots of the supernatant were determined using a commercially available ELISA 5(Biermann, Bad Nauheim).
All active substances were tested at a concentration of 10 .parallel.mol/l. IL-1β release was tested in each case.

[8] = test system: isolated guinea pig trachea; assay: Antagonism of calcium ionophore A23187-induced contraction of the isolated guinea pig trachea; conditions: Cavia porcellus; agonist Ca ionophore A23187; read-out: Anticontractile effect (trachea), concentration range needed to bring about a dilatation corresponding to the ED50 range
Source text: as §4
c) Calcium ionophore A23187 (Calbiochem, Bad Soden) brings about, due to increased uptake of calcium ions, an activation of all calcium-dependent signal cascades in the cell.
as §5, §6, §7, §8

Row | SMILES | IC50 [1] | IC50 [2] | Inhibition of MMP, Inhibition (%) ([6]; 30 μM) | Inhibition of MMP, Inhibition (%) ([6]; 100 μM) | inhibition at 10 µM [7] | further results
1 | CCOC(=O)C(Cc1ccc(OC(C)=O)c(OC(C)=O)c1)P(=O)(OCC)OCC (racemic) [Compound 61, Ethyl 3-(3,4-diacetoxyphenyl)-2-(diethoxyphosphinyl) propionate (rac.)] | ~3 µg/mL (≈ 6.97 µM) | > 10 µg/mL | – | – | – | –
2 | CCCCCCCCCCCCOc1cc(C=C(C#N)P(=O)(OCC)OCC)ccc1OC [Compound 1] | 1 to 3 µg/mL (≈ 2.09 to 6.26 µM) | > 10 µg/mL | – | – | – | –
3 | CCOP(=O)(OCC)C(C#N)=Cc1ccc(OC)c(OCc2ccc(CBr)cc2)c1 [Compound 4] | 1 to 3 µg/mL (≈ 2.02 to 6.07 µM) | 3 to 6 µg/mL (≈ 6.07 to 12.1 µM) | – | – | – | –
4 | CCOP(=O)(OCC)C(C#N)Cc1ccc(OCc2ccccc2)c(OCc2ccccc2)c1 (stereo not shown) [Compound 11] | 6 to 10 µg/mL (≈ 12.5 to 20.9 µM) | – | – | – | – | EC50 [3]: > 10 µg/mL; EC50 [4]: 10 to 30 µg/mL (≈ 20.9 to 62.6 µM); EC50 [5]: > 10 µg/mL
5 | COc1ccc(C=C(C(=O)OC(C)C)P(=O)(OC)OC)cc1OCc1ccccc1 [Compound 14] | – | – | 19% | 50% | – | –
6 | COc1ccc(C=C(C(=O)OC(C)C)P(=O)(OC)OC)cc1OC1CCCC1 [Compound 21] | – | – | 19% | 51% | – | –
7 | COP(=O)(OC)C(Cc1ccc(OCc2ccccc2)c(OCc2ccccc2)c1)C(=O)OC(C)C (stereo not shown) [Compound 25] | – | – | 24% | – | – | –
8 | COc1ccc(C=C(C(=O)OC(C)C)P(=O)(OC)OC)cc1O [Compound 26, Isopropyl 2-(dimethoxyphosphinyl)-3-(3-hydroxy-4-methoxy-phenyl)propenoate] | – | – | – | 51% | 59% | Inhibition of MMP, Inhibition (%) ([6]; 10 μM): 15%
9 | COP(=O)(OC)C(=Cc1ccc(OCc2ccccc2)c(OCc2ccccc2)c1)C(=O)OC(C)C [Compound 27] | – | – | 24% | 48% | 99% | –
10 | COc1cc(C=C(C(=O)OC(C)C)P(=O)(OC)OC)cc(OC)c1 [Compound 28] | – | – | – | 9% | – | –
11 | CCOP(=O)(OCC)C(C#N)=Cc1cc(OC)ccc1OC [Compound 30] | 1 to 3 µg/mL (≈ 3.07 to 9.22 µM) | ~10 µg/mL (≈ 30.7 µM) | – | – | – | EC50 [3]: > 10 µg/mL; EC50 [4]: 10 to 30 µg/mL (≈ 30.7 to 92.2 µM); EC50 [5]: 6 to 10 µg/mL (≈ 18.4 to 30.7 µM); EC50 [8]: 3 to 6 µg/mL (≈ 9.22 to 18.4 µM)
12 | COc1cc(C=C(C(=O)OC(C)C)P(=O)(OC)OC)cc(OC)c1OC [Compound 31] | – | – | 12% | 35% | 97% | Inhibition of MMP, Inhibition (%) ([6]; 10 μM): 8%
13 | COc1ccc(C=C(C(=O)OC(C)C)P(=O)(OC)OC)c(OC)c1 [Compound 32] | – | – | 22% | 52% | 80% | Inhibition of MMP, Inhibition (%) ([6]; 10 μM): 12%
14 | CCOP(=O)(OCC)C(C#N)Cc1ccc(OC)c(OC)c1 (stereo not shown) [Compound 34, 2-(diethoxyphosphinyl)-3-(3,4-dimethoxy-phenyl)propiononitrile] | – | – | – | – | – | EC50 [3]: > 10 µg/mL; EC50 [4]: 1 to 10 µg/mL (≈ 3.06 to 30.6 µM); EC50 [5]: > 10 µg/mL
15 | COc1cc(OC)c(OC)cc1C=C(C(=O)OC(C)C)P(=O)(OC)OC [Compound 35] | – | – | 21% | 52% | 83% | –
16 | COc1cc(CC(C(=O)OC(C)C)P(=O)(OC)OC)cc(OC)c1OC (stereo not shown) [Compound 36] | – | – | – | – | 15% | –
17 | COc1ccc(C=C(C(=O)OC(C)C)P(=O)(OC)OC)cc1OC [Compound 39] | – | ~10 µg/mL (≈ 27.9 µM) | 19% | 47% | 63% | Inhibition of MMP, Inhibition (%) ([6]; 10 μM): 16%
18 | COc1ccc(CC(C(=O)OC(C)C)P(=O)(OC)OC)cc1OC (stereo not shown) [Compound 41] | 1 to 3 µg/mL (≈ 2.78 to 8.33 µM) | > 10 µg/mL | – | – | 11% | –
19 | COP(=O)(OC)C(=Cc1ccc2c(c1)OCO2)C(=O)OC(C)C [Compound 42] | 3 to 6 µg/mL (≈ 8.76 to 17.5 µM) | > 10 µg/mL | – | – | 77% | –
20 | CCOP(=O)(OCC)C(C#N)=Cc1ccc(OC)cc1OC [Compound 44] | – | – | – | – | – | EC50 [3]: > 10 µg/mL; EC50 [4]: 10 to 30 µg/mL (≈ 30.7 to 92.2 µM); EC50 [5]: ~6 µg/mL (≈ 18.4 µM)
21 | CCOP(=O)(OCC)C(Cc1ccc(OS(C)(=O)=O)c(OS(C)(=O)=O)c1)C(=O)OC(C)C (stereo not shown) [Compound 46] | 1 to 3 µg/mL (≈ 1.94 to 5.81 µM) | ~10 µg/mL (≈ 19.4 µM) | – | – | – | –
22 | CCOP(=O)(OCC)C(=Cc1c(OC)cccc1OC)C(=O)OC(C)C [Compound 48] | – | – | 9% | 26% | – | Inhibition of MMP, Inhibition (%) ([6]; 10 μM): 7%
23 | CCOP(=O)(OCC)C(=Cc1ccc(OC(C)=O)c(OC(C)=O)c1)C(=O)OC [Compound 49] | – | – | 8% | 28% | – | –
24 | COc1ccc(C=C(C(=O)OC(C)C)P(=O)(O)O)cc1OC [Compound 50] | – | – | – | 14% | – | –
25 | CC(C)OC(=O)C(=Cc1ccc(OCc2ccccc2)c(OCc2ccccc2)c1)P(=O)(O)O [Compound 51, Ammonium hydrogen 2-(3,4-dibenzyloxybenzylidene)-isopropoxycarbonylmethanephosphonate] | – | – | – | 14% | – | –
26 | CCOP(=O)(OCC)C(C#N)=Cc1ccc(OC(C)=O)c(OC(C)=O)c1 [Compound 56, 3-(3,4-Diacetoxyphenyl)-2-(diethoxyphosphinyl) acrylonitrile] | 1 to 3 µg/mL (≈ 2.62 to 7.87 µM) | 3 to 6 µg/mL (≈ 7.87 to 15.7 µM) | – | – | – | –
27 | CCOP(=O)(OCC)C(=Cc1ccc(OS(C)(=O)=O)c(OS(C)(=O)=O)c1)C(=O)OC(C)C [Compound 63] | – | – | – | – | 92% | –
28 | CCOP(=O)(OCC)C(C#N)=Cc1ccc2c(c1)OCCO2 [Compound 70] | – | ~6 µg/mL (≈ 18.6 µM) | – | – | – | –
